In article PMC7218127, “Cytotoxic and Optically Active Pyrisulfoxins From the Endophytic Streptomyces albolongus EA12432” (Frontiers in Chemistry, 2020):

How the values were obtained:
[1] = test system: HCT-116 human colon carcinoma cell line; assay: CellTiter-Glo (CTG) cytotoxic assay; settings: HCT-116, 72 h, read-out: Cytotoxicity IC50, HCT-116
[2] = test system: MV-4-11 leukemia cell line; assay: CellTiter-Glo (CTG) cytotoxic assay; settings: Homo sapiens, MV4-11, 72 h, read-out: Cytotoxicity IC50, MV-4-11
[3] = CellTiter-Glo (CTG) cytotoxic assay, normal cells; settings: human, HEK-293F cells
[4] = test system: cancer cells; assay: Cytotoxicity (MTT, SRB, CTG), summary over all cancer cells; settings: read-out: IC50 values against cancer cells, range
[5] = test system: K562 leukemia cell line; assay: CellTiter-Glo (CTG) cytotoxic assay; settings: Homo sapiens, K562, 72 h, read-out: Cytotoxicity IC50, K562
[6] = test system: U251 glioblastoma cell line; assay: CellTiter-Glo (CTG) cytotoxic assay; settings: Homo sapiens, U-251, 72 h, read-out: Cytotoxicity IC50, U251
[7] = test system: MDA-MB-468 breast cancer cell line; assay: CellTiter-Glo (CTG) cytotoxic assay; settings: Homo sapiens, MDA-MB-468, 72 h, read-out: Cytotoxicity IC50, MDA-MB-468
[8] = test system: Karpass299 T cell lymphoma cell line; assay: CellTiter-Glo (CTG) cytotoxic assay; settings: Homo sapiens, 72 h, read-out: Cytotoxicity IC50, Karpass299
[9] = test system: A549 lung cancer cell line; assay: CellTiter-Glo (CTG) cytotoxic assay; settings: Homo sapiens, A549, 72 h, read-out: Cytotoxicity IC50, A549
[10] = test system: HCC1954 ductal carcinoma cell line; assay: CellTiter-Glo (CTG) cytotoxic assay; settings: Homo sapiens, HCC1954, 72 h, read-out: Cytotoxicity IC50, HCC1954
[11] = test system: HL-60 leukemia cell line; assay: CellTiter-Glo (CTG) cytotoxic assay; settings: Homo sapiens, HL-60, 72 h, read-out: Cytotoxicity IC50, HL60
[12] = test system: MCF-7 breast cancer cell line; assay: CellTiter-Glo (CTG) cytotoxic assay; settings: Homo sapiens, MCF7, 72 h, read-out: Cytotoxicity IC50, MCF-7
[13] = test system: H1299 lung cancer cell line; assay: CellTiter-Glo (CTG) cytotoxic assay; settings: Homo sapiens, NCI-H1299, 72 h, read-out: Cytotoxicity IC50, H1299
[14] = test system: A431 epidermoid carcinoma cell line; assay: CellTiter-Glo (CTG) cytotoxic assay; settings: Homo sapiens, A-431, 72 h, read-out: Cytotoxicity IC50, A431
[15] = test system: B16F10 highly metastatic mouse melanoma cell line; assay: CellTiter-Glo (CTG) cytotoxic assay; settings: B16-F10, 72 h, read-out: Cytotoxicity IC50, B16F10
[16] = test system: H2228 lung cancer cell line; assay: CellTiter-Glo (CTG) cytotoxic assay; settings: Homo sapiens, NCI-H2228, 72 h, read-out: Cytotoxicity IC50, H2228
[17] = test system: MDA-MB-231 breast cancer cell line; assay: CellTiter-Glo (CTG) cytotoxic assay; settings: Homo sapiens, MDA-MB-231, 72 h, read-out: Cytotoxicity IC50, MDA-MB-231
[18] = test system: Hep3B liver cancer cell line; assay: CellTiter-Glo (CTG) cytotoxic assay; settings: Homo sapiens, 72 h, read-out: Cytotoxicity IC50, Hep3B
[19] = test system: N87 gastric carcinoma cell line; assay: CellTiter-Glo (CTG) cytotoxic assay; settings: Homo sapiens, 72 h, read-out: Cytotoxicity IC50, N87
[20] = test system: MKN-45 gastric cancer cell line; assay: CellTiter-Glo (CTG) cytotoxic assay; settings: Homo sapiens, MKN-45, 72 h, read-out: Cytotoxicity IC50, MKN-45
[21] = test system: A673 rhabdomyoma cell line; assay: CellTiter-Glo (CTG) cytotoxic assay; settings: Homo sapiens, A673, 72 h, read-out: Cytotoxicity IC50, A673
[22] = test system: DU145 prostate cancer cell line; assay: CellTiter-Glo (CTG) cytotoxic assay; settings: Homo sapiens, DU-145, 72 h, read-out: Cytotoxicity IC50, DU145
[23] = test system: BT474 breast cancer cell line; assay: CellTiter-Glo (CTG) cytotoxic assay; settings: Homo sapiens, BT-474, 72 h, read-out: Cytotoxicity IC50, BT474
[24] = test system: H1975 lung cancer cell line; assay: CellTiter-Glo (CTG) cytotoxic assay; settings: Homo sapiens, NCI-H1975, 72 h, read-out: Cytotoxicity IC50, H1975
[25] = test system: HUCCT1 ductal carcinoma cell line; assay: CellTiter-Glo (CTG) cytotoxic assay; settings: Homo sapiens, HuCCT-1, 72 h, read-out: Cytotoxicity IC50, HUCCT1
[26] = test system: 143B bone osteosarcoma cell line; assay: CellTiter-Glo (CTG) cytotoxic assay; settings: Homo sapiens, 72 h, read-out: Cytotoxicity IC50, 143B
[27] = test system: U87 glioblastoma cell line; assay: CellTiter-Glo (CTG) cytotoxic assay; settings: Homo sapiens, 72 h, read-out: Cytotoxicity IC50, U87
[28] = test system: 26 cancer cell lines; assay: CTG cytotoxic assay, summary over the panel; settings: read-out: IC50 values against 26 cancer cell lines, range
[29] = test system: SPC-A1 lung cancer cell line; assay: CellTiter-Glo (CTG) cytotoxic assay; settings: Homo sapiens, SPCA1, 72 h, read-out: Cytotoxicity IC50, SPC-A1
[30] = CellTiter-Glo (CTG) cytotoxic assay, normal cells; settings: human, L02 normal liver cells
[31] = test system: HCT-116, HT-29, P6C and BXPC-3 cell lines; assay: SRB/MTT cytotoxicity assays, summary over CRC and pancreatic lines; settings: Homo sapiens, read-out: IC50 values against HCT-116, HT-29, P6C and BXPC-3, range
[32] = test system: P6C human colorectal cancer cell line; assay: MTT cytotoxicity assay; settings: read-out: Cytotoxicity IC50, P6C; MTT method, 72 h (Table 5)
[33] = test system: BXPC-3 human pancreatic cancer cell line; assay: SRB cytotoxicity assay; settings: read-out: Cytotoxicity IC50, BXPC-3; SRB method, 72 h (Table 5)
[34] = test system: K562 cell line; assay: MTT cytotoxicity assay; settings: read-out: Cytotoxicity IC50, K562; MTT method, 72 h (Table 5); NA = no activity
[35] = test system: HT-29 human colorectal cancer cell line; assay: SRB cytotoxicity assay; settings: read-out: Cytotoxicity IC50, HT-29; SRB method, 72 h (Table 5)
[36] = test system: HCT-116 human colorectal cancer cell line; assay: SRB cytotoxicity assay; settings: read-out: Cytotoxicity IC50, HCT-116; SRB method, 72 h (Table 5); NA = no activity
[37] = test system: MCF-7 human breast cancer cell line; assay: MTT cytotoxicity assay; settings: read-out: Cytotoxicity IC50, MCF-7; MTT method, 72 h (Table 5); NA = no activity
[38] = test system: Jurkat cell line; assay: MTT cytotoxicity assay; settings: read-out: Cytotoxicity IC50, Jurkat; MTT method, 72 h (Table 5)
[39] = test system: other 26 cell lines (Table 4 without N87); assay: CTG cytotoxic assay, summary over the other cell lines of Table 4; settings: read-out: IC50 against other 26 cell lines

**Q.** Which IC50 [1] does the source give for `CC(=O)NCc1nc(-c2ccccn2)cc(O)c1[S+](C)[O-]` (racemic) [(±)-2, N-[(4-hydroxy-5-methylsulfinyl-2,2′-bipyridin-6-yl)methyl] acetamide] here?
**A.** 2450 nM

**Q.** And the IC50 [2]?
**A.** 9.71 µM

**Q.** And the IC50 at 72 h [3]?
**A.** > 100 µM

**Q.** And the IC50 [4]?
**A.** 0.048 to 9.71 µM

**Q.** What about the IC50 [5] of the same compound?
**A.** 5920 nM

**Q.** And the IC50 [6]?
**A.** 4790 nM

**Q.** And the IC50 [7]?
**A.** 1310 nM

**Q.** What about the IC50 [8] of the same compound?
**A.** 3130 nM

**Q.** And the IC50 [9]?
**A.** 4180 nM

**Q.** And the IC50 [10]?
**A.** 2140 nM

**Q.** And the IC50 [11]?
**A.** 3180 nM

**Q.** What about the IC50 [12] of the same compound?
**A.** 5780 nM

**Q.** And the IC50 [13]?
**A.** 7.38 µM

**Q.** And the IC50 [14]?
**A.** 4630 nM

**Q.** And the IC50 [15]?
**A.** 7.74 µM

**Q.** What about the IC50 [16] of the same compound?
**A.** 8.05 µM

**Q.** And the IC50 [17]?
**A.** 920 nM

**Q.** What about the IC50 [18] of the same compound?
**A.** 4.42 µM

**Q.** And the IC50 [19]?
**A.** 7.46 µM

**Q.** And the IC50 [20]?
**A.** 4880 nM

**Q.** And the IC50 [21]?
**A.** 6.9 µM

**Q.** What about the IC50 [22] of the same compound?
**A.** 4510 nM

**Q.** What about the IC50 [23] of the same compound?
**A.** 8.24 µM

**Q.** What about the IC50 [24] of the same compound?
**A.** 2550 nM

**Q.** And the IC50 [25]?
**A.** 7.91 µM

**Q.** And the IC50 [26]?
**A.** 8.39 µM

**Q.** And the IC50 [27]?
**A.** 3670 nM

**Q.** And the IC50 [28]?
**A.** 0.92 to 9.71 µM

**Q.** And the IC50 [29]?
**A.** 7.83 µM

**Q.** What about the IC50 at 72 h [30] of the same compound?
**A.** > 100 µM

**Q.** What does the source list for `COc1cc(-c2ccccn2)nc(/C=N/O)c1[S+](C)[O-]` (racemic) [(±)-3, pyrisulfoxin A]?
**A.** IC50 [31]: 48 to 3200 nM; IC50 [4]: 0.048 to 9.71 µM; IC50 [32]: 3200 nM; IC50 [33]: 1600 nM; IC50 [34]: 13 µM; IC50 [35]: 830 nM; IC50 [36]: 730 nM

**Q.** With `COc1cccc2c1C(=O)c1c(O)c3c(c(O)c1C2=O)C[C@@](O)(C(=O)CO)C[C@@H]3O[C@H]1C[C@H](N)[C@H](O)[C@H](C)O1` [Adriamycin, reference compound] as the compound, how does the IC50 [1] read?
**A.** 100 nM

**Q.** What about the IC50 [2] of the same compound?
**A.** 0.16 µM

**Q.** And the IC50 at 72 h [3]?
**A.** 0.05 µM

**Q.** And the IC50 [5]?
**A.** 18 nM

**Q.** What about the IC50 [6] of the same compound?
**A.** 190 nM

**Q.** And the IC50 [7]?
**A.** > 100000 nM

**Q.** And the IC50 [8]?
**A.** 390 nM

**Q.** And the IC50 [9]?
**A.** 99 nM

**Q.** And the IC50 [10]?
**A.** 48 nM

**Q.** And the IC50 [11]?
**A.** 210 nM

**Q.** What about the IC50 [12] of the same compound?
**A.** 100 nM

**Q.** What about the IC50 [13] of the same compound?
**A.** 0.49 µM

**Q.** And the IC50 [14]?
**A.** 170 nM

**Q.** What about the IC50 [15] of the same compound?
**A.** 0.015 µM

**Q.** What about the IC50 [16] of the same compound?
**A.** 0.097 µM

**Q.** What about the IC50 [17] of the same compound?
**A.** 180 nM

**Q.** What about the IC50 [18] of the same compound?
**A.** 17.6 µM

**Q.** What about the IC50 [32] of the same compound?
**A.** 650 nM

**Q.** And the IC50 [37]?
**A.** 0.86 µM

**Q.** What about the IC50 [19] of the same compound?
**A.** 0.12 µM

**Q.** What about the IC50 [33] of the same compound?
**A.** 32 nM

**Q.** What about the IC50 [20] of the same compound?
**A.** 190 nM

**Q.** What about the IC50 [38] of the same compound?
**A.** 440 nM

**Q.** What about the IC50 [21] of the same compound?
**A.** 0.13 µM

**Q.** What about the IC50 [34] of the same compound?
**A.** 0.25 µM

**Q.** What about the IC50 [35] of the same compound?
**A.** 160 nM

**Q.** What about the IC50 [22] of the same compound?
**A.** 48 nM

**Q.** And the IC50 [23]?
**A.** 1.94 µM

**Q.** And the IC50 [24]?
**A.** 91 nM

**Q.** And the IC50 [25]?
**A.** 0.051 µM

**Q.** What about the IC50 [26] of the same compound?
**A.** 0.095 µM

**Q.** And the IC50 [27]?
**A.** 120 nM

**Q.** And the IC50 [29]?
**A.** 0.19 µM

**Q.** What about the IC50 [36] of the same compound?
**A.** 210 nM

**Q.** And the IC50 at 72 h [30]?
**A.** 0.096 µM

**Q.** With `COc1cc(-c2ccccn2)nc([C@H]2NC(=O)c3ccccc3N2)c1SC` [R(–)-14, R-Pyrisulfoxin F] as the compound, how does the IC50 [36] read?
**A.** 14700 nM

**Q.** Which IC50 [37] does the source give for `COc1cc(-c2ccccn2)nc([C@@H]2NC(=O)c3ccccc3N2)c1SC` [S(+)-14, S-Pyrisulfoxin F] here?
**A.** 10.4 µM

**Q.** With `COc1cc(-c2ccccn2)nc(CO)c1[S+](C)[O-]` (stereo not shown) [compound 1, 4-methoxy-5-methylsulfinyl-2,2′-bipyridine-6-methanol] as the compound, how does the IC50 at 72 h [3] read?
**A.** > 100 µM

**Q.** And the IC50 [4]?
**A.** 0.048 to 9.71 µM

**Q.** And the IC50 [39]?
**A.** > 100 µM

**Q.** What about the IC50 [19] of the same compound?
**A.** 8.09 µM

**Q.** And the IC50 at 72 h [30]?
**A.** > 100 µM
